Where two headings read alike, the source gives them in different places.

The assay has as its target canine TRPM8 (Canis lupus familiaris, UniProt Q1A7N1). The assay can be described thus: In Vitro Canine TRPM8 Functional Assay (Ca2+ fluorescence, icilin activation). In kind it is cell-based. To be noted: for inhibition at 0.2 µM: read-out: % Inh @ 0.2; for IC50: read-out: IC50; for inhibition at 0.5 µM: compound at 0.5 μM, read-out: % Inh @ 0.5. How it is done:
The functional activity of compounds of the formula (I) was determined by measuring changes in intracellular calcium concentration using a Ca^2+-sensitive fluorescent dye. The changes in fluorescent signal were monitored by a fluorescence plate reader, either a FLIPR™ (Molecular Devices) or FDSS (Hamamatsu).
At 24 hrs prior to assay, HEK293 cells stably expressing canine TRPM8 were seeded in culture medium in black wall, clear-base poly-D-lysine coated 384-well plates (BD Biosciences, NJ, USA) and grown overnight in 5% CO2 at 37° C. On assay day, growth media was removed and cells were loaded with Calcium 3 Dye (Molecular Devices) for 35 min at 37° C., under 5% CO2 and then for 25 min at room temperature and atmosphere. Subsequently, cells were tested for agonist-induced increases in intracellular Ca^2+ levels using FLIPR™ or FDSS. Cells were challenged with a compound of the Formula (I) (at varying concentrations) and intracellular Ca^2+ was measured for 5 min prior to the addition of icilin to all wells to achieve a final concentration that produces approximately an 80% maximal response. EC50 or IC50 values for compounds of the present invention were determined from eight-point dose-response studies. Curves were generated using the average of quadruplicate wells for each data point.

The mark [1] stands for this setting: compound at 0.2 μM, canine TRPM8, icilin activation.
Where [2] appears, read: 0.2 μM compound, HEK293 cells stably expressing canine TRPM8, icilin activation.
The mark [3] stands for this setting: HEK293 cells stably expressing canine TRPM8, icilin activation, eight-point dose-response.
Setting [4] is: canine TRPM8, icilin activation.

Chain of canine TRPM8 (Q1A7N1 1-1104): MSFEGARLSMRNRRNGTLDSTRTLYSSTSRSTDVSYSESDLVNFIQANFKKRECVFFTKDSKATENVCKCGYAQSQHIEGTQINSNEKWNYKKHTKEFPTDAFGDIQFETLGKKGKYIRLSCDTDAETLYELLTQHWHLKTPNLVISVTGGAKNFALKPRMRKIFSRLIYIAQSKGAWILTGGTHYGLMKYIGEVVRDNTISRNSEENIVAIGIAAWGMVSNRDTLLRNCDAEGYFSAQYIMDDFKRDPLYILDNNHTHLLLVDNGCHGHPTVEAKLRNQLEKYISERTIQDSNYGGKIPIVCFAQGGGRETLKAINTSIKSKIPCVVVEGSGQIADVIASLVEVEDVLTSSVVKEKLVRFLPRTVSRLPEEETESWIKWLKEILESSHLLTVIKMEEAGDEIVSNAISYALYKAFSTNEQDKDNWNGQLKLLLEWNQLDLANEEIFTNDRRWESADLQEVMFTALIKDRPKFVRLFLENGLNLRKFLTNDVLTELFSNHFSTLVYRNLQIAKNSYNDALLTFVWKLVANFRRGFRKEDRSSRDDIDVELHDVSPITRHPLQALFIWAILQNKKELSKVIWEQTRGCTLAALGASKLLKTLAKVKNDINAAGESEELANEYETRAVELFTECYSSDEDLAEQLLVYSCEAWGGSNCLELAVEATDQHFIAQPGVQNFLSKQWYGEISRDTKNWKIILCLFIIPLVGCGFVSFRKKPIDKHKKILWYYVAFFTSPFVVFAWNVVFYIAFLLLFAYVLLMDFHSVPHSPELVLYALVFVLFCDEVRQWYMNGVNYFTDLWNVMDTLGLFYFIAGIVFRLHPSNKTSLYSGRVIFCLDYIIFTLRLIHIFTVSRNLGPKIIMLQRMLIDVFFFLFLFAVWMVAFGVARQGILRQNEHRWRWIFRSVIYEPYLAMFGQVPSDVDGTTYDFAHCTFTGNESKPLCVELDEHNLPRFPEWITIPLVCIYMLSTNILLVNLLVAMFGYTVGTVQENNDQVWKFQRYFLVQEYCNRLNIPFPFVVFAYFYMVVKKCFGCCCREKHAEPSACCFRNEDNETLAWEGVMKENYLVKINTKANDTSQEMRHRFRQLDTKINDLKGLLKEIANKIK

Turning to `Cc1c(N(Cc2ccc(F)c(C(F)(F)F)c2)S(=O)(=O)c2ccc(-c3cc(C(F)(F)F)on3)s2)sc2ccccc12` [Compound 329, N-(3-Methyl-benzo[b]thiophen-2-yl)-N-(4-fluoro-3-trifluoromethyl-benzyl)-5-(5-trifluoromethyl-isoxazol-3-yl)-thien-2-ylsulfonamide], under setting [1], the inhibition at 0.2 µM is 17%.
Regarding `COC(C)c1c(N(CCCF)S(=O)(=O)c2ccccc2)sc2ccccc12` (centres unmarked) [Compound 822, N-(3-Fluoro-propyl)-N-[3-(1-methoxy-ethyl)-benzo[b]thiophen-2-yl]-benzenesulfonamide], the inhibition at 0.2 µM under setting [2] stood at 97%. Where the note is “HEK293 cells stably expressing canine TRPM8, icilin activation, average of two or more determinations”, the 50% inhibitory concentration (IC50) is 49 nM.
With `COC(=O)c1ccc(S(=O)(=O)N(CCC(F)(F)F)c2sc3ccccc3c2C(C)(C)O)cc1` [Compound 504, N-(3-(1-Hydroxy-1-methyl-ethyl)-benzo[b]thiophen-2-yl)-N-(3,3,3-trifluoro-propyl)-4-carbomethoxy-benzenesulfonamide], the IC50 under setting [3] was determined as 18 nM. Under setting [1], the inhibition at 0.2 µM worked out at 101%.
The matching figures for `CN(C)S(=O)(=O)N(CCC(F)(F)F)c1sc2ccccc2c1Br` [Compound 269, N-(3-Bromo-benzo[b]thiophen-2-yl)-N-(3,3,3-trifluoropropyl)-N′,N′-dimethylsulfamide]: 16 nM and 94%.
`COC(=O)c1ccc(S(=O)(=O)N(Cc2ccc(F)c(C(F)(F)F)c2)c2cc3ccccc3s2)cc1` [Compound 135, N-(Benzo[b]thiophen-2-yl)-N-(4-fluoro-3-trifluoromethyl-benzyl)-4-carbomethoxy-benzenesulfonamide]: under setting [1], the inhibition at 0.2 µM came to 18%.
Consider `COC(=O)c1ccc(S(=O)(=O)N(CCCCC(F)(F)F)c2sc3ccccc3c2Cl)cc1` [Compound 531, N-(3-Chloro-benzo[b]thiophen-2-yl)-N-(5,5,5-trifluoro-pentyl)-4-carbomethoxy-benzenesulfonamide], for which the concentration for half-maximal inhibition (IC50) under setting [3] turned out to be 46 nM. Under setting [1], the inhibition at 0.2 µM was determined as 88%.
For `O=S(=O)(c1ccccc1)N(Cc1ccncc1)c1sc2ccccc2c1Br` [Compound 170, N-(3-Bromo-benzo[b]thiophen-2-yl)-N-(pyridin-4-ylmethyl)-benzenesulfonamide], the half-inhibitory concentration (IC50) under setting [3] was 44.5 nM. The inhibition at 0.5 µM under setting [4] was 97%.
With `CCCCNS(=O)(=O)N(CCCC)c1sc2ccccc2c1Br` [Compound 849, N-(3-Bromo-benzo[b]thiophen-2-yl)-N,N′-bis-butyl-sulfamide], the inhibition at 0.2 µM under setting [2] came out at 25%.
`COc1cc(CN(c2sc3ccccc3c2Br)S(=O)(=O)c2ccccc2)ccc1F` [Compound 176, N-(3-Bromo-benzo[b]thiophen-2-yl)-N-(4-fluoro-3-methoxy-benzyl)-benzenesulfonamide]: under setting [3], the IC50 worked out at 2.8 nM. Moreover, the inhibition at 0.5 µM under setting [4] is 97%.
For `O=S(=O)(c1ccccc1)N(Cc1ccc(OC(F)(F)F)cc1)c1cc2ccccc2s1` [Compound 58, N-(Benzo[b]thiophen-2-yl)-N-(4-trifluoromethoxy-benzyl)-benzenesulfonamide], in that order: 45.5 nM and 98%.
As to `Cc1c(N(Cc2ccc(F)c(C(F)(F)F)c2)S(=O)(=O)c2cccc3c2CN(C(=O)C(F)(F)F)CC3)sc2ccccc12` [Compound 73, N-(4-Fluoro-3-trifluoromethyl-benzyl)-N-(3-methyl-benzo[b]thiophen-2-yl)-2-(2,2,2-trifluoro-acetyl)-1,2,3,4-tetrahydro-isoquinoline-8-sulfonamide], the inhibition at 0.2 µM under setting [1] worked out at 24%.
For the compound `COC(=O)CN(c1sc2ccccc2c1Br)S(=O)(=O)c1ccccc1` [Compound 243, N-(3-Bromo-benzo[b]thiophen-2-yl)-N-(carbomethoxymethyl)-benzenesulfonamide], the IC50 under setting [3] stood at 38 nM. The inhibition at 0.2 µM under setting [1] is 98%.
For `CC(=O)c1c(N(Cc2ccc(OC(F)(F)F)cc2)S(=O)(=O)c2ccc(Br)cc2)sc2ccccc12` [Compound 731, N-(3-Acetyl-benzo[b]thiophen-2-yl)-4-bromo-N-(4-(trifluoromethoxy)-benzyl)benzenesulfonamide], in that order: 44.4 nM and 87%.
On to `COC(=O)c1ccc(CN(c2sc3ccccc3c2Br)S(=O)(=O)c2cccnc2)cc1` [Compound 406, N-(3-Bromo-benzo[b]thiophen-2-yl)-N-(4-carbomethoxy-benzyl)-pyridin-3-ylsulfonamide], for which the inhibition at 0.2 µM under setting [1] is 66%.
Regarding `CCS(=O)(=O)N(Cc1ccc(F)c(C(F)(F)F)c1)c1sc2ccccc2c1-c1cncnc1` [Compound 199, N-(4-Fluoro-3-trifluoromethyl-benzyl)-N-(3-pyrimidin-5-yl-benzo[b]thiophen-2-yl)-ethanesulfonamide], under setting [3], the IC50 was determined as 13 nM. The inhibition at 0.2 µM under setting [1] worked out at 91%.
On to `Cc1c(N(Cc2cccc3cccnc23)S(=O)(=O)c2cccc3cnccc23)sc2ccccc12` [Compound 29, N-(3-Methyl-benzo[b]thiophen-2-yl)-N-(quinolin-8-ylmethyl)-isoquinoline-5-sulfonamide], for which the half-maximal inhibitory concentration (IC50) under setting [3] was determined as 33 nM. Also, the inhibition at 0.5 µM under setting [4] worked out at 99%.
Turning to `CCS(=O)(=O)N(CCSC)c1sc2ccccc2c1C` [Compound 108, N-(3-Methyl-benzo[b]thiophen-2-yl)-N-(2-methylsulfanyl-ethyl)-ethanesulfonamide], the inhibition at 0.2 µM under setting [1] worked out at 71%.
Consider `CCS(=O)(=O)N(Cc1ccc(F)c(F)c1)c1sc2ccccc2c1C(C)(C)O` [Compound 226, N-(3,4-Difluoro-benzyl)-N-[3-(1-hydroxy-1-methyl-ethyl)-benzo[b]thiophen-2-yl]-ethanesulfonamide], for which the IC50 under setting [3] is 2 nM. Further, the inhibition at 0.2 µM under setting [1] amounted to 99%.
Consider `Cc1c(N(CCCCC(F)(F)F)S(=O)(=O)c2ccc(N3CCOCC3)cc2)sc2ccccc12` [Compound 750, N-(3-Methyl-benzo[b]thiophen-2-yl)-N-(5,5,5-trifluoro-pentyl)-4-morpholino-benzenesulfonamide], for which the half-inhibitory concentration (IC50) under setting [3] was 9.2 nM. In addition, the inhibition at 0.2 µM under setting [1] worked out at 101%.
For `CC(C)c1c(N(CCCCC(F)(F)F)S(=O)(=O)c2ccc(C(=O)O)cc2)sc2ccccc12` [Compound 568, N-(5,5,5-Trifluoro-pentyl)-N-(3-isopropyl-benzo[b]thiophen-2-yl)-4-carboxy-benzenesulfonamide], in that order: 2.4 nM and 104%.
The matching figures for `COc1cc(NS(C)(=O)=O)ccc1S(=O)(=O)N(Cc1ccc(F)c(C(F)(F)F)c1)c1sc2ccccc2c1Cl` [Compound 744, N-(3-Chloro-benzo[b]thiophen-2-yl)-N-(4-fluoro-3-trifluoromethyl-benzyl)-4-methanesulfonylamino-2-methoxy-benzenesulfonamide]: 57.3 nM and 99%.
The matching figures for `O=C(O)c1ccc(S(=O)(=O)N(CCCC(F)(F)F)c2sc3ccccc3c2Br)cc1` [Compound 394, N-(3-Bromo-benzo[b]thiophen-2-yl)-N-(4,4,4-trifluoro-butyl)-4-carboxy-benzenesulfonamide]: 9 nM and 101%.
For `CC(C)(O)c1c(N(Cc2ccc(F)c(C(F)(F)F)c2)S(=O)(=O)c2ccc(Br)cc2)sc2ccccc12` [Compound 388], the 50% inhibitory concentration (IC50) under setting [3] turned out to be 19 nM. The “% Inh @ 0.2 (μM)” value under setting [1] is recorded as 97%.
Turning to `CN(C)CCN(c1sc2ccccc2c1Cl)S(=O)(=O)c1ccccc1` [Compound 87, N-(3-Chloro-benzo[b]thiophen-2-yl)-N-(2-dimethylamino-ethyl)-benzenesulfonamide], the IC50 under setting [3] was determined as 170 nM. Besides, under setting [4], the inhibition at 0.5 µM was 94%.
Take `NS(=O)(=O)N(Cc1ccc(F)c(C(F)(F)F)c1)c1sc2ccccc2c1Br` [Compound 301, N-(3-Bromo-benzo[b]thiophen-2-yl)-N (4-fluoro-3-trifluoromethyl-benzyl)-sulfamide]: under setting [1], the “% Inh @ 0.2 (μM)” value turned out to be 63%.
Turning to `O=C1CC[C@@H](CN(c2sc3ccccc3c2Br)S(=O)(=O)c2ccccc2)N1` [Compound 259, (S)—N-(3-Bromo-benzo[b]thiophen-2-yl)-N-(5-oxo-pyrrolidin-2-ylmethyl)-benzenesulfonamide], the inhibition at 0.2 µM under setting [1] was determined as 24%.
With `CCCCN(c1sc2ccccc2c1Br)S(=O)(=O)c1ccc(N(C)C)cc1` [Compound 560, N-(3-Bromo-benzo[b]thiophen-2-yl)-N-(butyl)-4-dimethylamino-benzenesulfonamide], under setting [3], the IC50 came out at 65.7 nM. Besides, the inhibition at 0.2 µM under setting [1] was found to be 104%.
For `Cc1c(N(CCCC(F)(F)F)S(=O)(=O)c2cccc(C#N)c2)sc2ccccc12` [Compound 551, N-(3-Methyl-benzo[b]thiophen-2-yl)-N-(4,4,4-trifluoro-butyl)-3-cyano-benzenesulfonamide], under setting [3], the 50% inhibitory concentration (IC50) is 88.6 nM. Besides, the inhibition at 0.2 µM under setting [1] was found to be 94.4%.
For `CCCCN(c1sc2ccccc2c1Br)S(=O)(=O)c1cccnc1` [Compound 345, N-(3-Bromobenzo[b]thiophen-2-yl)-N-(butyl)-pyridin-3-yl-sulfonamide], in that order: 26.5 nM and 99%.

Source of the values: patent publication US9434711B2 (Janssen Pharmaceutica, NV, priority 2007, dated 2016).
